Laboratory results taken from US20240268395A1, “ANTIFUNGAL PROTEIN COMPOSITION” (GEAENZYMES CO., priority 2019, published 2024).
Ends that are not written are not given here.

Legend:
[1] = test system: Aspergillus niger; experiment: Agar dilution assay, inhibition of mycelial growth from spores; format: cell-based; details: fused to carrier solubility protein
From the text: FIG. 8. Agar dilution assay to assess the antifungal activity of the peptide-protein fusion SEQ ID NO: 1-MBP against Aspergillus niger. Left, representative images of agar dilution assays performed with serial dilutions of antifungal peptide-MBP fusions added to agar before solidification. Assays tested for the inhibition of mycelial growth from A. niger spores. Protein storage buffer was used as a negative control for growth inhibition, and Zeocin was used as positive control. Right, IC50 values for the peptide-protein fusion SEQ ID NO: 1-MBP. Aggregated results from up to three independent experiments were used to interpolate IC50 from the fitted curve.
FIGS. 9A-9B. Agar dilution assay comparing the antifungal activity of the peptide-protein fusions SEQ ID NO: 28-MBP and SEQ ID NO: 29-MBP against Aspergillus niger. FIG. 9A: Representative images of agar dilution assays performed with serial dilutions of antifungal peptide-MBP fusions added to agar before solidification. Assays tested for the inhibition of mycelial growth from A. niger spores. […]
To further test the versatility of antifungal peptides, these were genetically fused to a variety of different carrier solubility proteins, and their antifungal activity tested. […] Mycelium length was then estimated and analyzed (FIGS. 3, 4, and 5). […]

[2] = test system: Trichoderma reesei, Fusarium oxysporum, Rhizopus oligosporum, Aspergillus niger and two environmental isolates; experiment: Fungal inhibition in agar plates containing embedded antifungal peptides; format: cell-based; details: 150 μg/ml, without carrier protein
Protocol: FIG. 1. Fungal inhibition in agar plates containing a composition comprising Antifungal Peptide SEQ ID NO: 1 after 2 days at 30° C. Fungal strains inoculated in the plate: 1: Trichoderma reesei; 2: Fusarium oxysporum; 3: Rhizopus oligosporum; 4: household environmental isolated; 5: Aspergillus niger; 6: bread contamination environmental isolate. Panel A: 150 μg/ml of peptidic antifungal composition with six histidine amino-terminal residues. Panel B: 150 μg/ml of peptidic antifungal composition with six histidine amino-terminal residues pre-treated for 10 minutes at 90° C. Panel C: 175 μg/ml of peptidic antifungal composition fused to a carrier protein. Panel D: negative control without peptidic antifungal composition.
Antifungal peptide having an amino acid sequence as set forth in SEQ ID NO: 1 (Table 1) was genetically fused to 6 amino-terminal histidine residues, expressed and produced in a recombinant manner in Escherichia coli, and after cell lysis, peptide purified using immobilized metal affinity chromatography (IMAC) with nickel resin. A second variant of antifungal peptide having an amino acid sequence as set forth in SEQ ID NO: 1 was also generated, fusing the antifungal peptide to a carrier protein. […] Fungal inhibition was then assessed in agar plates containing embedded antifungal peptides, incubating 2 days at 30° C. […]

Sequence	potency at sub-MIC concentrations (reflected in the IC50), comparison of the three peptides [1]	fungal growth in agar plates compared with control ([2]; six histidine amino-terminal residues, 2 days at 30° C.)	activity after pre-incubation at 90° C. (thermostability) ([2]; pre-treated for 10 minutes at 90° C.)
KRCGSQAGCPNGHCCSQYGFCGFGPEYCGRG [SEQ ID NO: 29]	highest potency	–	–
VGECVRGRCPSGMCCSQFGYCGKGPKYCGR (not fully specified (N-terminus); cysteine pairing not given here) [SEQ ID NO: 1, tested genetically fused to 6 amino-terminal histidine residues, produced recombinantly in Escherichia coli]	–	impacts the growth of all fungi when compared with the control condition, although to a lesser extent with the environmental fungal isolates	does not impair its activity
